Test results reported in US20120029187A1, “HALOALKYLSULFONANILIDE DERIVATIVE” (Nissan Chemical Industries, Ltd., priority 2009, published 2012).

Key:
Assay type in all cases: in vivo
[1] = system: barnyardgrass; assay: Test Example 1: herbicidal effects in preemergence treatment under submerged conditions; conditions: dose 2.52 g/a
In short: (§1)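 Score 0–5 by mortality (5: ≥90%; 0: <5%), read 3 weeks post-application. Paddy-type cups: alluvial soil under 4 cm water, weeds seeded plus transplanted 2.5-leaf rice; diluted EC dosed onto water surface same day as sowing, g/a basis; greenhouse 25 to 30° C.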

[2] = system: bulrush; assay: as above; conditions: dose 2.52 g/a
In short: as §1

[3] = system: ducksalad; assay: as above; conditions: dose 2.52 g/a
In short: as §1

[4] = system: transplanted rice; assay: Test Example 1: preemergence treatment under submerged conditions, effect on crop; conditions: dose 2.52 g/a
In short: as §1

[5] = system: barnyardgrass; assay: Test Example 2: herbicidal effects during the vegetation period under submerged conditions; conditions: treatment during the vegetation period under submerged conditions; dose 2.52 g/a
In short: (§2)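 Barnyardgrass, bulrush and ducksalad were co-sown in alluvial soil flooded to 4 cm and grown in a greenhouse at 25 to 30° C. At the 1- or 2-leaf stage, water-diluted emulsifiable concentrates went onto the water surface at set doses (g/a). Herbicidal effect was scored three weeks later on a graded scale.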

[6] = system: bulrush; assay: as above; conditions: treatment during the vegetation period under submerged conditions; dose 2.52 g/a
In short: as §2

[7] = system: ducksalad; assay: as above; conditions: treatment during the vegetation period under submerged conditions; dose 2.52 g/a
In short: as §2

[8] = system: Italian ryegrass; assay: Test Example 3: herbicidal effects in soil treatment; conditions: dose 3.2 g/a
In short: (§3)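 Seeds were sown in sterilized diluvial soil and covered with about 1.5 cm of soil. Compounds, formulated as emulsifiable concentrates and diluted with water, were sprayed evenly over the soil surface at set doses in g/a. Herbicidal effect was scored on a rating scale three weeks later.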

[9] = system: barnyardgrass; assay: as above; conditions: dose 3.2 g/a
In short: as §3

[10] = system: beadstraw; assay: as above; conditions: dose 3.2 g/a
In short: as §3

[11] = system: common chickweed; assay: as above; conditions: dose 3.2 g/a
In short: as §3

[12] = system: common lambsquater; assay: as above; conditions: dose 3.2 g/a
In short: as §3

[13] = system: common ragweed; assay: as above; conditions: dose 3.2 g/a
In short: as §3

[14] = system: giant foxtail; assay: as above; conditions: dose 3.2 g/a
In short: as §3

[15] = system: large crabgrass; assay: as above; conditions: dose 3.2 g/a
In short: as §3

[16] = system: posumbu knotweed; assay: as above; conditions: dose 3.2 g/a
In short: as §3

[17] = system: redroot pigweed; assay: as above; conditions: dose 3.2 g/a
In short: as §3

[18] = system: velvetleaf; assay: as above; conditions: dose 3.2 g/a
In short: as §3

[19] = system: water foxtail; assay: as above; conditions: dose 3.2 g/a
In short: as §3

[20] = system: wild oat; assay: as above; conditions: dose 3.2 g/a
In short: as §3

[21] = system: Italian ryegrass; assay: Test Example 4: herbicidal effect in foliage treatment; conditions: dose 3.2 g/a, three weeks after application
In short: (§4)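 A uniform foliar spray of emulsifiable concentrate, diluted with water to give the stated g/a dose, was applied to plants raised for 14 days from seed in sterilized diluvial soil at 25 to 30° C. Herbicidal effects were scored three weeks later.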

[22] = system: barnyardgrass; assay: as above; conditions: dose 3.2 g/a, three weeks after application
In short: as §4

[23] = system: beadstraw; assay: as above; conditions: dose 3.2 g/a, three weeks after application
In short: as §4

[24] = system: common chickweed; assay: as above; conditions: dose 3.2 g/a, three weeks after application
In short: as §4

[25] = system: common lambsquater; assay: as above; conditions: dose 3.2 g/a, three weeks after application
In short: as §4

[26] = system: common ragweed; assay: as above; conditions: dose 3.2 g/a, three weeks after application
In short: as §4

[27] = system: giant foxtail; assay: as above; conditions: dose 3.2 g/a, three weeks after application
In short: as §4

[28] = system: large crabgrass; assay: as above; conditions: dose 3.2 g/a, three weeks after application
In short: as §4

[29] = system: posumbu knotweed; assay: as above; conditions: dose 3.2 g/a, three weeks after application
In short: as §4

[30] = system: redroot pigweed; assay: as above; conditions: dose 3.2 g/a, three weeks after application
In short: as §4

[31] = system: velvetleaf; assay: as above; conditions: dose 3.2 g/a, three weeks after application
In short: as §4

[32] = system: water foxtail; assay: as above; conditions: dose 3.2 g/a, three weeks after application
In short: as §4

[33] = system: wild oat; assay: as above; conditions: dose 3.2 g/a, three weeks after application
In short: as §4

SMILES | A: barnyardgrass, herbicidal effect (evaluation scale 0-5) [1] | B: bulrush, herbicidal effect (evaluation scale 0-5) [2] | C: ducksalad, herbicidal effect (evaluation scale 0-5) [3] | a: transplanted rice, effect on crop (evaluation scale 0-5) [4] | A: barnyardgrass, herbicidal effect (evaluation scale 0-5) [5] | B: bulrush, herbicidal effect (evaluation scale 0-5) [6] | C: ducksalad, herbicidal effect (evaluation scale 0-5) [7] | H: Italian ryegrass, herbicidal effect (evaluation scale 0-5) [8] | A: barnyardgrass, herbicidal effect (evaluation scale 0-5) [9] | O: beadstraw, herbicidal effect (evaluation scale 0-5) [10] | N: common chickweed, herbicidal effect (evaluation scale 0-5) [11] | L: common lambsquater, herbicidal effect (evaluation scale 0-5) [12] | J: common ragweed, herbicidal effect (evaluation scale 0-5) [13] | E: giant foxtail, herbicidal effect (evaluation scale 0-5) [14] | D: large crabgrass, herbicidal effect (evaluation scale 0-5) [15] | M: posumbu knotweed, herbicidal effect (evaluation scale 0-5) [16] | K: redroot pigweed, herbicidal effect (evaluation scale 0-5) [17] | I: velvetleaf, herbicidal effect (evaluation scale 0-5) [18] | G: water foxtail, herbicidal effect (evaluation scale 0-5) [19] | F: wild oat, herbicidal effect (evaluation scale 0-5) [20] | further results
CN(c1ccccc1CN1COC(C)(C)CC1=O)S(=O)(=O)C(F)(F)F [II-18] | 2 (mortality of at least 20% and less than 40%) | 5 (mortality of 90% or above (nearly complete death)) | 0 (mortality of less than 5% (almost ineffective)) | 0 (mortality of less than 5% (almost ineffective)) | 5 (mortality of 90% or above (nearly complete death)) | 5 (mortality of 90% or above (nearly complete death)) | 2 (mortality of at least 20% and less than 40%) | 0 (mortality of less than 5% (almost ineffective)) | 4 (mortality of at least 70% and less than 90%) | 4 (mortality of at least 70% and less than 90%) | 4 (mortality of at least 70% and less than 90%) | 0 (mortality of less than 5% (almost ineffective)) | 4 (mortality of at least 70% and less than 90%) | 0 (mortality of less than 5% (almost ineffective)) | 0 (mortality of less than 5% (almost ineffective)) | 0 (mortality of less than 5% (almost ineffective)) | 0 (mortality of less than 5% (almost ineffective)) | 0 (mortality of less than 5% (almost ineffective)) | 0 (mortality of less than 5% (almost ineffective)) | 0 (mortality of less than 5% (almost ineffective)) | H: Italian ryegrass, herbicidal effect [21]: 0 (mortality of less than 5% (almost ineffective)); A: barnyardgrass, herbicidal effect [22]: 4 (mortality of at least 70% and less than 90%); O: beadstraw, herbicidal effect [23]: 5 (mortality of 90% or above (nearly complete death)); N: common chickweed, herbicidal effect [24]: 4 (mortality of at least 70% and less than 90%); L: common lambsquater, herbicidal effect [25]: 0 (mortality of less than 5% (almost ineffective)); J: common ragweed, herbicidal effect [26]: 3 (mortality of at least 40% and less than 70%); E: giant foxtail, herbicidal effect [27]: 0 (mortality of less than 5% (almost ineffective)); D: large crabgrass, herbicidal effect [28]: 0 (mortality of less than 5% (almost ineffective)); M: posumbu knotweed, herbicidal effect [29]: 3 (mortality of at least 40% and less than 70%); K: redroot pigweed, herbicidal effect [30]: 0 (mortality of less than 5% (almost ineffective)); I: velvetleaf, herbicidal effect [31]: 0 (mortality of less than 5% (almost ineffective)); G: water foxtail, herbicidal effect [32]: 0 (mortality of less than 5% (almost ineffective)); F: wild oat, herbicidal effect [33]: 0 (mortality of less than 5% (almost ineffective))
CC1(C)OCN(Cc2ccccc2NS(=O)(=O)C(F)(F)F)C(=O)C1F (stereo not drawn) [II-32] | 5 (mortality of 90% or above (nearly complete death)) | 5 (mortality of 90% or above (nearly complete death)) | 5 (mortality of 90% or above (nearly complete death)) | 0 (mortality of less than 5% (almost ineffective)) | 5 (mortality of 90% or above (nearly complete death)) | 5 (mortality of 90% or above (nearly complete death)) | 5 (mortality of 90% or above (nearly complete death)) | 5 (mortality of 90% or above (nearly complete death)) | 5 (mortality of 90% or above (nearly complete death)) | 3 (mortality of at least 40% and less than 70%) | 3 (mortality of at least 40% and less than 70%) | 0 (mortality of less than 5% (almost ineffective)) | 5 (mortality of 90% or above (nearly complete death)) | 4 (mortality of at least 70% and less than 90%) | 5 (mortality of 90% or above (nearly complete death)) | 4 (mortality of at least 70% and less than 90%) | 3 (mortality of at least 40% and less than 70%) | 3 (mortality of at least 40% and less than 70%) | 5 (mortality of 90% or above (nearly complete death)) | 0 (mortality of less than 5% (almost ineffective)) | H: Italian ryegrass, herbicidal effect [21]: 4 (mortality of at least 70% and less than 90%); A: barnyardgrass, herbicidal effect [22]: 5 (mortality of 90% or above (nearly complete death)); O: beadstraw, herbicidal effect [23]: 4 (mortality of at least 70% and less than 90%); N: common chickweed, herbicidal effect [24]: 3 (mortality of at least 40% and less than 70%); L: common lambsquater, herbicidal effect [25]: 2 (mortality of at least 20% and less than 40%); J: common ragweed, herbicidal effect [26]: 3 (mortality of at least 40% and less than 70%); E: giant foxtail, herbicidal effect [27]: 4 (mortality of at least 70% and less than 90%); D: large crabgrass, herbicidal effect [28]: 4 (mortality of at least 70% and less than 90%); M: posumbu knotweed, herbicidal effect [29]: 2 (mortality of at least 20% and less than 40%); K: redroot pigweed, herbicidal effect [30]: 1 (mortality of at least 5% and less than 20%); I: velvetleaf, herbicidal effect [31]: 4 (mortality of at least 70% and less than 90%); G: water foxtail, herbicidal effect [32]: 5 (mortality of 90% or above (nearly complete death)); F: wild oat, herbicidal effect [33]: 2 (mortality of at least 20% and less than 40%)
